Results taken from patent US20140187556A1, “ANTI-AMYLOID COMPOUNDS AND METHODS” (Treventis Corporation, priority 2011, published 2014).
Values belong to the molecule of their own block, whether it stands above or below them.

What was measured:
[1] = system: MDR1-MDCK cell monolayers; assay: Blood-brain barrier penetration potential using MDR1-MDCK cell monolayers; format: in vitro ADME; conditions: 5 μM, 120 min
From the text: (§1) This assay is used to determine the blood-brain barrier (BBB) penetration potential of a test compound using MDR1-MDCK cell monolayers. Further details on this method may be found in Taub M E, et al., Functional assessment of multiple Pglycoprotein (P-gp) probe substrates: Influence of cell line and modulator concentration on P-gp activity. Drug Metab Dispos. 2005 November; 33(11): 1679-87 and Wang Q, et al., Evaluation of the MDR-MDCK cell line as a permeability screen for the blood-brain barrier. Int J. Pharm. 2005 Jan. 20; 288(2):349-59; each of which is hereby incorporated by reference. Test compound was formulated in 300 μL of DMSO at 10 mM and diluted to 5 μM in HBSSg with maximum DMSO concentration not greater than 1%. Confluent monolayers of MDR1-MDCK cells, 7 to 11 days old, were used. A receiver well, having apical and basolateral sides at pH 7.4, was used with 1% BSA in modified Hanks buffer (HBSSg). Two monolayers were dosed with test compound in each direction (N=2). Apical side dosing was used for A-B assessment and basolateral side was used for B-A assessment; taken together, this information provides a bidirectional permeability potential. Apical and basolateral sides were sampled at 120 minutes and concentrations of test compound were determined using an LC-MS/MS method with a minimum 4 point calibration curve. Apparent permeability (Papp) in both directions (A-B and B-A) was calculated, as was the efflux ratio (Papp B-A)/(Papp A-B).

[2] = In vivo brain/plasma ratio determination in CD-1 mice; conditions: for Mean brain/plasma ratio: 2 hours; for maximum brain/plasma ratio: day 5, once daily i.p. dosing
Procedure: Five groups of CD-1 mice (both sexes; individual weights 20 to 40 g) were dosed intraperitoneally with different doses of TRV 1067 (0, 3, 10, 30, and 100 mg/kg). DMSO (100%) was used as a vehicle. Animals had ad libitum access to rodent chow. Some animals were euthanized 2 hours after dosing on Day 1 and brains were harvested. Blood (0.15 mL) was collected 15 minutes after dosing and at sacrifice. The remaining animals were dosed once daily for 5 consecutive days. Blood samples were collected 15 minutes after dosing on Day 1. On Day 5, blood samples were collected 15 minutes and 2 hours after dosing and brains were harvested.
Standards were prepared in CD-1 mouse plasma containing sodium heparin as an anticoagulant and CD-1 mouse brain homogenate. An eight-point calibration curve was prepared at concentrations of 1000, 500, 100, 50, 10, 5, 1, and 0.5 ng/mL by serial dilution. Standard samples were treated identically to the study samples. Brain samples were homogenized with a Virsonic 100 ultrasonic homogenizer. Each brain sample was first weighed, and then an appropriate volume of 20:80 methanol:water was added to make a 4 mL/1 g sample. Samples were then homogenized on ice, and stored frozen until analysis. Plasma and brain homogenate samples were extracted via acetonitrile precipitation on a Tomtec Quadra 96-Model 320 liquid handling system in a 96-well plate format. A Perkin Elmer series 200 micropumps and LEAP Autosampler high-performance liquid chromatograph (HPLC) was used with a 0.2% formic acid/water/acetonitrile solvent system for separation purposes. The compound was quantitated using a PE Sciex API3000 mass spectrometer connected to the HPLC; negative polarity was used, with TRV 1067 analyzed using ion settings of 347.1 mass/charge ratio for the precursor and 212.1 for the product ions, respectively. Warfarin was used in negative polarity (307.1 precursor, 250.0 product) as an internal standard.

Tau441 = Tau441 (Homo sapiens, UniProt P10636); assay: Thioflavin S (ThS) tau aggregation assay; format: biochemical; conditions: FIG. 1; for inhibition at 20 µM: 20 μM compound; for IC50: read-out: tau aggregation IC50 (suggested by inhibition at 20 μM)
Procedure: Analogous to the method of Example 1, the ability of compounds to inhibit the aggregation of tau was performed by substituting […] with tau and Thioflavin T with Thioflavin S.

Aβ40 = biological target: T1, Aβ40 (Homo sapiens, UniProt P05067); assay: Thioflavin T (ThT) Aβ aggregation assay; format: biochemical; conditions: 20 μM Aβ40, 37 degrees C
T1 construct: pre-treated Aβ40 (40 μM in 20 mM Tris, pH 7.4)
Procedure: Aβ40 (1.0 mg) was pre-treated in a 1.5 mL microfuge tube with HFIP (1 mL) and sonicated for 20 min to disassemble any pre-formed Aβ aggregates. The HFIP was removed with a stream of argon and the Aβ dissolved in Tris base (5.8 mL, 20 mM, pH ˜10). The pH was adjusted to 7.4 with concentrated HCl (−10 μL) and the solution filtered using a syringe filter (0.2 μm) before being used.
The kinetic ThT assay for Aβ aggregation is similar to that of Chalifour et al (Chalifour et al, 2003, J. Biol. Chem. 278:34874-81). Briefly, pre-treated Aβ40 (40 μM in 20 mM Tris, pH 7.4), was diluted with an equal volume of 8 μM ThT in Tris (20 mM, pH 7.4, 300 mM NaCl). Aliquots of Aβ/ThT (200 μL) were added to wells of a black polystyrene 96-well plate, followed by 2 μL of a compound in DMSO (variable concentration), or DMSO alone (controls). Incubations were performed in triplicate and were taken to contain 20 μM Aβ, various concentration of compound in 20 mM Tris, pH 7.4, 150 mM NaCl, 1% DMSO. Plates were covered with clear polystyrene lids and incubated at 37 degrees C. in a Tecan Genios microplate reader. Fluorescence readings (λex=450 nm, λem=480 nm) were taken every 15 min., after first shaking at high intensity for 15 s and allowing to settle for 10 s before each reading. Active compounds attenuated the increase in fluorescence over time that occurred in controls.

[3] = Metabolic stability in mouse liver microsomes; format: in vitro ADME; conditions: 1 μM compound, 0.5 mg/mL microsomal protein, 1 mM NADPH
Procedure: This assay is used to determine the percent remaining and intrinsic clearance of a test compound incubated with pooled mouse liver microsomes in the presence of NADPH. Further details on this method may be found in Jeffrey P, et al., Utility of metabolic stability screening: comparison of in vitro and in vivo clearance. enobiotica. 2001 August-September; 31(8-9):591-8 and Lin J H, et al., Role of pharmacokinetics and metabolism in drug discovery and development. Pharmacol Rev. 1997; 49(4):403-49; each of which is hereby incorporated by reference. Test compound was formulated in 300 μL of DMSO at 10 mM and was diluted to 1 μM with final concentration of organic solvent <0.25% for the experiment. Pooled liver microsomes were prepared from male mice, with 1 mM NADPH. Test compound was incubated at 37 degrees Celsius in buffer containing 0.5 mg/mL microsomal protein; the reaction was initiated by adding cofactors and sampled at 0, 10, 20, 30, and 60 minutes. A positive control (5 μM testosterone) was incubated and initiated in parallel for quality control. Samples were analyzed using an LTQ-Orbitrap XL mass spectrometer; HRMS was used to determine the peak area response ratio (peak area corresponding to test compound or control divided by that of an analytical internal standard) without running a standard curve.
Results were reported for selected compounds in the table of Example 1, as % test compound remaining after 60 minutes. Compounds which have less than about 5% remaining are not considered to be metabolically stable in mouse liver microsomes, while compounds with more than about 5% remaining are considered to be metabolically stable in mouse liver microsomes.

alpha-synuclein = alpha-synuclein (Homo sapiens, UniProt P37840); assay: alpha-synuclein aggregation assay (ThT, analogous to Example 1); format: biochemical; conditions: 10 μM compound
Procedure: Analogous to the method of Example 1, the ability of compounds to inhibit the aggregation of alpha-synuclein was performed by substituting Aβ with alpha-synuclein.

[4] = Blood-brain barrier penetration potential using MDR1-MDCK cell monolayers; format: in vitro ADME; conditions: dog
From the text: as §1

T1 sequence (P05067 672-711 limits assumed): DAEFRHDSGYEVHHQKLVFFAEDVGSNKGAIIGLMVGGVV
Sequence of Tau441 (P10636 1-441 isoform P10636-8): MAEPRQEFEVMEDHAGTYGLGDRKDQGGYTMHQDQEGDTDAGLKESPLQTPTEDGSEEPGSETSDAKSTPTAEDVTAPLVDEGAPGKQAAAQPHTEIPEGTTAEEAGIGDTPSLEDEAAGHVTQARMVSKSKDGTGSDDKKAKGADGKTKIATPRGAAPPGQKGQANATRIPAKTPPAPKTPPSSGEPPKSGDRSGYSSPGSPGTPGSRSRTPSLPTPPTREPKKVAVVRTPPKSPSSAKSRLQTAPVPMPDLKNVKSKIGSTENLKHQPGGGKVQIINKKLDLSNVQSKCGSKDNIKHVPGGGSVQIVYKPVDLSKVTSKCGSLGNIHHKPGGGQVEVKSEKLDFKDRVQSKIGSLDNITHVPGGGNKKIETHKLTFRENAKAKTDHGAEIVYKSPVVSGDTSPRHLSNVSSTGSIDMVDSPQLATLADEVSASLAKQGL

Efflux ratio (Papp B-A)/(Papp A-B) [1]: 1.8
Papp A-B × 10^−6 cm/s ([1]; apical dosing, pH 7.4): 42.1 10^−6 cm/s
Papp B-A × 10^−6 cm/s ([1]; basolateral dosing, pH 7.4): 74.9 10^−6 cm/s
Mean brain/plasma ratio ([2]; female CD-1 mice, Day 1, 3 mg/kg intraperitoneally): too low to determine
Mean brain/plasma ratio ([2]; female CD-1 mice, Day 1, 100 mg/kg intraperitoneally): 0.051
maximum brain/plasma ratio ([2]; female CD-1 mice): 0.067
Mean brain/plasma ratio ([2]; male CD-1 mice, Day 1, 3 mg/kg intraperitoneally): too low to determine
Mean brain/plasma ratio ([2]; male CD-1 mice, Day 1, 100 mg/kg intraperitoneally): 0.168
maximum brain/plasma ratio ([2]; male CD-1 mice): 0.256
Structure (SMILES): O=C(O)c1cccc(-c2ccc([N+](=O)[O-])c(NCc3ccccc3)c2)c1 [TRV 1067, 3′-(benzylamino)-4′-nitrophenyl-3-carboxylic acid]
blood-brain barrier crossing in vivo ([2]; CD-1 mice, 3-100 mg/kg i.p.): did not appreciably cross the blood-brain barrier

inhibition at 20 µM (Tau441): ~20%
IC50 (Tau441): > 20 µM
IC50 (Aβ40): 15.9 ± 7.8 µM
Stability in mouse liver microsomes (% test compound remaining after 60 min) [3]: <1.0%
Structure (SMILES): O=C(c1ccccc1)N1CCN(c2ccc(F)c(Nc3ccccc3)c2)CC1 [TRV 1095, (4-(4-fluoro-3-(phenylamino)phenyl)piperazin-1-yl)(phenyl)methanone]

Papp A→B at 120 min, 5 µM ([4]; MDCK-MDR1, apical dosing, pH 7.4, read-out: Papp A-B × 10^−6 cm/s): 38.3 ×10⁻⁶ cm/s
Papp B→A at 120 min, 5 µM ([4]; MDCK-MDR1, basolateral dosing, pH 7.4, read-out: Papp B-A × 10^−6 cm/s): 47.4 ×10⁻⁶ cm/s
efflux ratio at 120 min, 5 µM ([4]; MDCK-MDR1, pH 7.4, read-out: Efflux ratio (Papp B-A)/(Papp A-B)): 1.2
IC50 (Aβ40): 1.34 ± 0.22 µM
Stability in mouse liver microsomes (% test compound remaining after 60 min) [3]: 60%
Structure (SMILES): O=[N+]([O-])c1ccc(-c2cccc(-c3nnn[nH]3)c2)cc1NCc1ccccc1 [TRV 1120, N-benzyl-4-nitro-3′-(1H-tetrazol-5-yl)-[1,1′-biphenyl]-3-amine]
inhibition of alpha-synuclein aggregation (alpha-synuclein): inhibit alpha-synuclein aggregation at 10 μM

inhibition at 20 µM (Tau441): ~20%
IC50 (Tau441): > 20 µM
IC50 (Aβ40): 42.02 ± 0.12 µM
Structure (SMILES): O=C(c1ccccc1)N1CCN(c2ccc(C(F)(F)F)c(N3CCCC3)c2)CC1 [TRV 1158, phenyl(4-(3-(pyrrolidin-1-yl)-4-(trifluoromethyl)phenyl)piperazin-1-yl)methanone]
